Several values for one entry are separate records, joined by “and”; a condition that tells them apart may be missing. Equal values may be shown once.
Legend:
P. falciparum = assay: Rosetting assay (percentage of IRBC that form rosettes), P. falciparum; assay type: cell-based, Plasmodium falciparum; conditions: for effect on rosetting rates of TSP-1 and VWF without IGFBP7: Albumax-supplemented medium, TSP-1 and VWF present together
Procedure: (§1) Rosetting assay was conducted when 70% of the parasite population reached late stages (late trophozoites and schizonts) unless stated otherwise. The parasite culture suspension was stained subvitally with Giemsa (5% stain working concentration) for 20 minutes. Subsequently, 7.6 μl stained suspension was pipetted onto a clean glass slide, immediately covered with a 22×32 mm glass cover slip. The wet mount was examined with light microscope using 1000× magnification. Rosetting rate (percentage of rosetting IRBCs) was defined as the percentage of IRBC (over 200 recruited IRBC) that form rosettes. Experiments were conducted in blinded manner.
(§2) Following data review, coupled with critical information (i.e. the protein's subcellular location and cellular functions) from UNIPROT, candidates were shortlisted for further validation. The parasite culture suspensions were incubated with CSMT and antibodies against the shortlisted proteins (see Table 6, items 35, 37, 39-41) and tested in rosetting assay at a final concentration of 25 μg/ml.
(§3) The parasite culture suspension was divided into three groups, one served as control, the second group was added with recombinant human IGFBP7 (final concentration 100 ng/ml), and the third group was mixed with CSMT (CSMT:parasite culture=1:3). After one hour of incubation under in vitro cultivation conditions, rosetting assay was conducted. Separately, a portion of the IGFBP7 suspension was heat-denatured at 95° C. for one hour, prior to use in rosetting assay.
(§4) Parasite cultures were incubated with IGFBP7 (working concentrations 0-25,000 ng/ml) prior to rosetting assay. Time course experiments were performed with laboratory-adapted P. falciparum lines (3D7, MKK183, FVT402, FVT201, WPP3065) incubated with IGFBP7 (100 ng/ml). Rosetting assay was conducted after five minutes, using 7 μl of the suspension. The remaining suspension was kept back into the incubator. Rosetting assay was repeated at five minute-intervals until one hour-post-IGFBP7 exposure. Reversibility of IGFBP7-mediated rosette-stimulation was also tested. Parasite lines (3D7, MKK183, FVT402, FVT201, WPP3065) were incubated with IGFBP7 (100 ng/ml) and rosetting assay was conducted with 7 μl of the suspension. The remaining suspension was centrifuged at 1500 g for five minutes. Supernatant was removed, and the pellet was washed thrice with culture medium, followed by re-suspension with culture medium. Five minutes later, 7 μl of the suspension was taken for rosetting assay, subsequently repeated at five minute-intervals up to one-hour post-IGFBP7 removal.
(§5) Magnetic activated cell sorter (MACS)-sorted late stage-IRBC (purity 95%) were trypsinized at different working concentrations. The first group was mixed with enzyme trypsin (final trypsin concentration of 10 μg/ml), and the second was mixed with enzyme trypsin (final trypsin concentration of 1 mg/ml). The third served as untreated control. The cells were incubated at 37° C. for 30 minutes. After that, the cells were washed with serum-enriched medium for three times. Each group was incubated with or without IGFBP7 (100 ng/ml) prior to rosetting assay. P. falciparum line CS2 deficient of SBP1 [(SBP1-KO-CS2), which lacks P. falciparum erythrocyte membrane protein 1 (PFEMP1) on its IRBC surface] and its wild type (CS2-WT) counterpart were cultured as described. Their rosetting rates post-incubation with IGFBP7 at different concentrations were determined. P. falciparum clones NF54 VAR2CSA_WT and NF54_T934D (cannot express PfEMP1 variant VAR2CSA on IRBC surface^32) were cultivated. Experiments were conducted when parasite population reached late stages. For each parasite line, two conditions were applied; one was incubated with IGFBP7 (100 ng/ml) whereas the other one acted as IGFBP7-free control. Rosetting assay was conducted afterwards. Five replicates were conducted for each experiment setting. […]

THP-1 [1] = assay: Zymosan A phagocytosis by THP-1 (control experiment); assay type: cell-based, human; conditions: IGFBP7 100 ng/ml one hour, then Zymosan A 10 μg/ml one hour
Procedure: THP-1 is cultivated and expanded into three batches. For each batch of culture, 1×10^6 cells were incubated with IGFBP7 (working concentration 100 ng/ml) for one hour at in vitro cultivation conditions. Another set of cells acted as IGFBP7-free control. Subsequently, Zymosan A (working concentration 10 μg/ml) was added to both sets of cells and incubated for another one hour at in vitro cultivation conditions. Supravital staining with Giemsa was done for 15 minutes following this. Using wet mount technique, the percentage of THP-1 cells which has engulfed Zymosan A was determined as phagocytosis rate by recruiting 1,000 THP-1 cells. The experiment was repeated with the other two batches of THP-1 culture. And all the steps were repeated for another two times using THP-1 cultures thawed at different time points. P. falciparum lines (3D7, MKK183, FVT402, FVT201, CS2_WT) were incubated with or without IGFBP7 in serum-enriched medium prior to rosetting assay. Subsequently, THP-1 were added. Using wet mount technique, the IRBC phagocytosis rates were determined following the same formula to determine phagocytosis rate in the Zymosan A experiment. […]

hCMEC/D3 = assay: IRBC-endothelial cytoadhesion to hCMEC/D3; assay type: cell-based, Plasmodium falciparum
Description: Following this we investigated the relationship between IGFBP7, rosetting and IRBC-endothelial cytoadhesion. As expected, IGFBP7 stimulated rosetting of the recruited laboratory-adapted P. falciparum. […] How about the already endothelial-cytoadhered IRBCs? […] Clearly, presence of IGFBP7 interfered with the dynamics between IRBC-endothelial cytoadhesion and IRBC-rosetting.
Is the IGFBP7-induced reversal of IRBC-endothelial cytoadhesion mediated via the IGFBP7-stimulated rosetting? Or are the two events occurring concomitantly? […] The two events are likely to happen in parallel instead of being a cause-effect relationship.

P. vivax = assay: Rosetting assay (percentage of IRBC that form rosettes), P. vivax; assay type: cell-based, Plasmodium vivax
Procedure: as §1, §2, §3, §4, §5

peripheral monocytes = assay: IRBC phagocytosis by CD14+ peripheral monocytes; assay type: cell-based, human; conditions: IGFBP7 100 ng/ml, Pf line NHP1106, biological replicates
THP-1 [2] = assay: IRBC phagocytosis by THP-1; assay type: cell-based, human
[3] = test system: Plasmodium berghei ANKA line expressing luciferase (PbAluc); assay: Experimental cerebral malaria (ECM) in PbAluc infected C57BL/6 mice; assay type: in vivo
Procedure: Here, we set out to determine the effect of IGFBP7 administration on mice. In particular, we set out to determine the dose and protection from ECM death of mouse IGFBP7 administered i.v. on days 5-12 post-infection (dpi) to Plasmodium berghei ANKA line expressing luciferase (PbAluc) infected C57BL/6 mice.
IGFBP7 was suspended in 1×PBS (concentrations: 0, 50, 100, 200, 1000, and 5000 ng/ml). A separate aliquot of IGFBP7 (5000 ng/ml) was prepared and boiled for one hour, to be used as control.
For each protein concentration group, I.V. administration of 100 μl per mouse was done.
Mice were infected with PbAluc. Prior to infection, an aliquot of serum was collected for each mouse using blood collected through orbital bleeding. Sera were also collected on days 3 and 6 post-infection (dpi) for further testing in future.
I.V. administration was done on daily basis from 5-12 dpi. The n number for each concentration group was 8 except group 5 ng/mouse (n=7) and group 500 ng/mouse (n=5).
The mice were monitored daily, and their signs and symptoms were observed. Dead mice were removed.
Survival of mice within the experimental cerebral malaria (ECM) period (6-12 dpi) across the experimental groups was recorded.
Mice that survived the ECM period were monitored until their death by malaria-induced anemia.

[4] = test system: cytoadhesive properties of infected erythrocytes; conditions: adjunct treatment candidate, phase II clinical trial; cited from earlier work
[5] = Albumax-supplemented medium with IGFBP7 100 ng/ml and TSP-1 10 ng/ml

Substance: VWF: Recombinant human VWF (rhVWF), serum co-factor of IGFBP7-mediated rosetting
- VWF concentration at which optimal increment attained (P. falciparum; [5]): 0.5 IU/ml
- VWF concentration sufficient to significantly increase rosetting rates (P. falciparum; [5]): 0.125 IU/ml
- effect on rosetting rates of TSP-1 and VWF without IGFBP7 (P. falciparum): could not increase the rosetting rates
- effect of VWF by itself on rosetting (P. falciparum; VWF 1 IU/ml, no IGFBP7, 20% and 2% serum medium): did not stimulate rosetting

Substance: insulin-like growth factor binding protein 7 [IGFBP7]
- effect on rosetting rates with VWF in Albumax medium (P. falciparum; 0.25% Albumax II medium, IGFBP7 100 ng/ml, VWF 0-2.0 IU/ml, no TSP-1): did not significantly increase rosetting rates
- IGFBP7-induced rosetting in filtered serum (P. falciparum; 20% human serum filtered with 0.45 μm filter, IGFBP7 100 ng/ml): abolished
- rosette-stimulating capacity after heat denaturation (P. falciparum; 95° C. for one hour, Pf n=5): abolished
- effect on rosetting rate (P. falciparum; CS2 wild-type parasite): increased
- effect on rosetting of trypsin-treated IRBC (P. falciparum; IRBC treated with 10 μg/ml or 1 mg/ml trypsin, IGFBP7 100 ng/ml, Pf n=5): did not significantly alter rosetting
- rosetting rates (P. falciparum; NF54 T934D (no VAR2CSA on IRBC surface), IGFBP7 100 ng/ml, one hour, biological replicates): 0.5% (2×) and 1.5% (2×) and 1.0%
- rosetting rates (P. falciparum; NF54 VAR2CSA_WT, IGFBP7 100 ng/ml, one hour, biological replicates): 5.0% and 7.0% and 4.5% and 4.0% and 6.5%
- rosetting rates (P. falciparum; Pf co-incubated with THP-1, IGFBP7 100 ng/ml, biological replicates): 11.0% and 13.0% and 16.0% and 9.0% and 10.0%
- rosetting rates (P. falciparum; Pf co-incubated with monocytes, IGFBP7 100 ng/ml, biological replicates): 14.0% and 18.0% and 15.0% and 17.0% and 10.0%
- concentration at which significant rosette-stimulation noted (P. falciparum; Pf n=7, one hour incubation, 0-25,000 ng/ml tested): 50 ng/mL
- concentration from which significant rosette-stimulation was noted (P. falciparum; PfCS2-WT): 100 ng/mL
- effect on rosetting rate (P. falciparum; SBP1-KO-CS2 (no PfEMP1 on IRBC surface)): no effect
- effect on rosetting with URBC of different ABO blood groups (P. falciparum; URBC groups A, B, O, AB, rhIGFBP7 100 ng/ml, Pf n=7): significantly increase rosetting rates regardless of the blood groups
- rosetting with heparinase-treated URBC (P. falciparum; URBC treated with heparinase I or III 25 μg/ml, purified Pf IRBC): did not induce rosetting
- rosetting rates of IRBCs detached from hCMEC/D3 (P. falciparum; after co-incubation with URBCs and IGFBP7, all parasite lines recruited): 5-25%
- rosette formation prior to THP-1 exposure (P. falciparum; five different P. falciparum lines, IGFBP7-incubated): formed more rosettes
- minimum time to significantly stimulate rosetting (P. falciparum; lab-adapted Pf n=5, IGFBP7 100 ng/ml): ≥ 15 min
- time after protein removal at which rosetting rates revert to baseline (P. falciparum; lab-adapted Pf n=5, after IGFBP7 100 ng/ml exposure and washing): 15 min
- rosetting rates (P. falciparum; late ring stages (hour 16-26) of NHP1106, IGFBP7 100 ng/ml, replicates flask/cycle): 8.5% and 7.0% (2×) and 8.0% (2×) and 6.0% (3×) and 5.0%
- concentration at which rosette stimulation reaches a plateau (P. falciparum; leukocyte-free parasite culture, P. falciparum isolates): 100 ng/mL
- effect on rosetting rates in 2% serum (P. falciparum; medium with only 2% serum, IGFBP7 100 ng/ml, no VWF added): could not increase rosetting rates
- effect on phagocytosis ability of THP-1 (THP-1 [1]): increased
- cytoadhesion of already hCMEC/D3-cytoadhering IRBCs (hCMEC/D3; incubation of cytoadhering IRBCs with IGFBP7): reduced IRBC-endothelial cytoadhesion
- IRBC-endothelial cytoadhesion of IGFBP7-primed packed cells (hCMEC/D3; rosette-stimulated cells then co-incubated with hCMEC/D3, vs non-IGFBP7-primed): lower rate of IRBC-endothelial cytoadhesion
- rosette-stimulating capacity after heat denaturation (P. vivax; 95° C. for one hour, Pv n=4): abolished
- effect on rosetting of trypsin-treated IRBC (P. vivax; IRBC treated with 10 μg/ml or 1 mg/ml trypsin, IGFBP7 100 ng/ml, Pv n=4): did not significantly alter rosetting
- concentration at which significant rosette-stimulation noted (P. vivax; Pv n=7, one hour incubation, 0-25,000 ng/ml tested): 50 ng/mL
- effect on rosetting with URBC of different ABO blood groups (P. vivax; URBC groups A, B, O, AB, rhIGFBP7 100 ng/ml, Pv n=7): significantly increase rosetting rates regardless of the blood groups
- rosetting with heparinase-treated URBC (P. vivax; URBC treated with heparinase I or III 25 μg/ml, purified Pv IRBC): did not induce rosetting
- concentration at which rosette stimulation reaches a plateau (P. vivax; leukocyte-free parasite culture, P. vivax isolates): 100 ng/mL
- phagocytosis rates (peripheral monocytes): 6.0% and 10.0% and 9.0% and 11.0% and 4.0%
- phagocytosis rates (THP-1 [2]; THP-1, IGFBP7 100 ng/ml, Pf line NHP1106, biological replicates): 10.0% (2×) and 5.0% and 11.0% and 8.0%
- IRBC phagocytosis compared with non-IGFBP7-exposed counterparts (THP-1 [2]; five different P. falciparum lines, IGFBP7-incubated prior to THP-1 exposure): significantly less phagocytosed
- ECM death compared with control group ([3]; 10, 20, 100, and 500 ng/mouse i.v. daily 5-12 dpi, vs denatured IGFBP7): significantly lower ECM death
- survival rate compared with control ([3]; 10, 20, 100 and 500 ng/mouse i.v. daily 5-12 dpi, vs denatured 500 ng/mouse IGFBP7, till 25 dpi): significant difference in survival rate
- signs of cerebral malaria ([3]; groups 10, 20, 100 and 500 ng/mouse, after 8 dpi): reversal of CM signs
- dose adequate to confer protection from cerebral malaria ([3]; i.v. daily 5-12 dpi): 10 ng/mouse

Substance: TSP-1: rhTSP-1 (thrombospondin-1), serum co-factor of IGFBP7-mediated rosetting
- effect on rosetting rates of TSP-1 and VWF without IGFBP7 (P. falciparum): could not increase the rosetting rates
- TSP-1 concentration enough to optimally facilitate IGFBP7-mediated rosette-stimulation (P. falciparum; serum-free (Albumax-supplemented medium), IGFBP7 100 ng/ml, with VWF): 10 ng/mL

Substance: Curdlan sulfate
- effect on pathology of patients [4]: reduce the severe pathology development

From patent US12109253B2, “Use of IGFBP7 for treating malaria” (AGENCY FOR SCIENCE, TECHNOLOGY AND RESEARCH, priority 2019, dated 2024)
